According to US20180155429A1, “TREATMENT OF PD-L1 POSITIVE LUNG CANCER USING AN ANTI-PD-1 ANTIBODY” (Bristol-Myers Squibb Company, priority 2015, published 2018):

Key:
[1] = Randomized phase III study of nivolumab versus docetaxel, exposure and safety; format: in vivo, human; conditions: for Treatment-related deaths: at DBL, treated pts
Method: (§1) 582 patients were randomized to receive either nivolumab or docetaxel. 292 were randomized to receive nivolumab, and of these, 287 actually received nivolumab. 290 were randomized to receive docetaxel, and of these, 268 actually received docetaxel. Patients were treated with nivolumab at 3 mg/kg IV Q2W until they experienced a progressive disease or unacceptable toxicity. Patients were treated with docetaxel at 75 mg/m^2 IV Q3W until progressive disease or unacceptable toxicity occurred. The primary end point of the study was overall survival (OS). The secondary endpoints of the study were overall response rate (ORR) (Per RECIST v1.1 criteria as determined by the investigator), progression free survival (PFS) (Per RECIST v1.1 criteria as determined by the investigator), efficacy by tumor PD-L1 expression, and disease-related symptom improvement rate by week 12. An overview of the trial can be seen in FIGS. 1A and 1B.

[2] = test system: advanced non-squamous (non-SQ) NSCLC; assay: Randomized phase III study of nivolumab versus docetaxel, efficacy (OS, PFS, ORR, DOR, also by tumor PD-L1 expression); format: in vivo, human; conditions: for Best overall response CR / Best overall response PD / Best overall response PR / Best overall response SD / Best overall response Unable to determine: Nivo N = 292, Doc N = 290; for mOS: PD-L1+ patients; for 1-year PFS rate / median OS / 1-year OS rate: all randomized pts; for 1-year OS rate: nivolumab 3 mg/kg IV Q2W, docetaxel 75 mg/m^2 IV Q3W; for Median time to response: all responders (NIVO, n = 56; DOC, n = 36); for Ongoing response: at last tumor assessment before censoring, responders
Method: as §1
All patients had either stage IIIB or stage IV non-squamous NSCLC and 1 prior PT-DC treatment. Prior maintenance therapy with pemetrexed, bevacizumab or erlotinib was allowed (and was not considered a separate line of therapy). Prior TKI therapy was allowed for a known ALK translocation or EGFR mutation. The ECOG PS was 0-1. Patients were stratified by prior maintenance therapy and line of therapy (second-vs third-line)
In this example, ALK means anaplastic lymphoma kinase; ECOG PS means Eastern Cooperative Oncology Group performance status; EGFR means epidermal growth factor receptor; IV means intravenous; LCSS means Lung Cancer Symptom Scale; ORR means objective response rate; OS=overall survival; PFS=progression-free survival; PD=progressive disease; and TKI means tyrosine kinase inhibitor.
The PD-L1 expression was measured for the patients. The DAKO PD-L1 Assay Analytical Validation and Clinical Sample Testing is described in Table 3.

[3] = cited from earlier work
PD-1 = molecular target: T1, PD-1 (Homo sapiens, UniProt Q15116); conditions: 15 subjects, 0.3 mg/kg to 10 mg/kg, across all doses, cited from earlier work
T1 construct: Receptor-occupancy data from 15 subjects who received 0.3 mg/kg to 10 mg/kg dosing with nivolumab indicate that PD-1 occupancy appears to be dose-independent; endogenous in cells
T1 sequence (Q15116 25-288): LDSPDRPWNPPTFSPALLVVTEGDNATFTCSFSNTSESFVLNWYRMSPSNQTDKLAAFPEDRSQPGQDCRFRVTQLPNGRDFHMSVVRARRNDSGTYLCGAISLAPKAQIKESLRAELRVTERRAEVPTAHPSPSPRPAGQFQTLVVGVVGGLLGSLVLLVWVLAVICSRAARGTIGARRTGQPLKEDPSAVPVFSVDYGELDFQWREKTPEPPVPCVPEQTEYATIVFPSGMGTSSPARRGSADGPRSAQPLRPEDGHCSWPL

[4] = all randomized pts (Nivo N = 292, Doc N = 290), RECIST v1.1, investigator

Compound	Treatment-related deaths [1]	Best overall response CR [2]	Best overall response PD [2]	Best overall response PR [2]	Best overall response SD [2]	Best overall response Unable to determine [2]	mOS ([2]; 1% expression level) [months]	mOS ([2]; 5% expression level) [months]	mOS ([2]; 10% expression level) [months]	Median DOR ([2]; PD-L1 Negative (<1%)) [mos]	ORR ([2]; PD-L1 Negative (<1%)) [%]	Median DOR ([2]; PD-L1 Negative (<5%)) [mos]	ORR ([2]; PD-L1 Negative (<5%)) [%]	Median DOR ([2]; PD-L1 Negative (<10%)) [mos]	ORR ([2]; PD-L1 Negative (<10%)) [%]	Median DOR ([2]; PD-L1 Not quantifiable) [mos]	ORR ([2]; PD-L1 Not quantifiable) [%]	Median DOR ([2]; PD-L1 Positive (≥1%)) [mos]	ORR ([2]; PD-L1 Positive (≥1%)) [%]	Median DOR ([2]; PD-L1 Positive (≥5%)) [mos]	also measured
CC(=O)O[C@@]12CO[C@@H]1C[C@H](O)[C@@]1(C)C(=O)[C@H](O)C3=C(C)[C@@H](OC(=O)[C@H](O)[C@@H](NC(=O)OC(C)(C)C)c4ccccc4)C[C@@](O)([C@@H](OC(=O)c4ccccc4)[C@H]21)C3(C)C [docetaxel, reference compound]	0.4^9	(0.3) %	(29) %	(12) %	(42) %	(16) %	9.0	8.1	8.0	5.6	15	5.6	14	5.6	14	6.6	9.1	5.6	12	5.6	Treatment-related select AE: Hypothyroidism ([1]; human, in vivo): 0%; Treatment-related select AE: Pneumonitis ([1]; human, in vivo): 0.4%; ORR ([2]; PD-L1 Positive (≥5%)): 13%; Median DOR ([2]; PD-L1 Positive (≥10%)): 5.6 mos; ORR ([2]; PD-L1 Positive (≥10%)): 13%; 1-year PFS rate [2]: 8.1%; median OS [2]: 9.4 months; ORR [2, 4]: 12%; 1-year OS rate [2]: 39%; Median DOR ([2]; all responders): 5.6 mos; Median time to response [2]: 2.6 mos; Ongoing response [2]: (14) %
nivolumab	0^8	(1.4) %	(44) %	(18) %	(25) %	(11) %	17.2	18.2	19.4	18.3	9.3	18.3	10	18.3	11	7.3	13	16.0	31	16.0	tolerated dose ([3]; given intravenously every 2 weeks): up to 10 mg/kg; maximum tolerated dose (MTD) ([3]; nivolumab monotherapy every two weeks, MTD not reached): > 10 mg/kg; safety profile ([1]; in vivo): favorable vs docetaxel; Estimated odds ratio (95% CI) for ORR ([2]; Nivo vs Doc, P-value 0.0246): 1.7 (1.1, 2.6); ORR ([2]; PD-L1 Positive (≥5%)): 36%; Median DOR ([2]; PD-L1 Positive (≥10%)): 16.0 mos; ORR ([2]; PD-L1 Positive (≥10%)): 37%; 1-year PFS rate [2]: 19%; median OS [2]: 12.2 months; ORR [2, 4]: 19%; 1-year OS rate [2]: 51%; Median DOR ([2]; all responders): 17.2 mos; Median time to response [2]: 2.1 mos; Ongoing response [2]: (52) %; reduction in risk of death ([2]; nivolumab in comparison to docetaxel): 27%; HR (risk of death) ([2]; nivolumab in comparison to docetaxel, P=0.0015): 0.73; mean plateau PD-1 occupancy (PD-1; range 59% to 81%): 72%; mean PD-1 occupancy rate (PD-1; range 70% to 97%): 85%
